# Results: article PMC8213057, “Targeting ALK2: An Open Science Approach to Developing Therapeutics for the Treatment of Diffuse Intrinsic Pontine Glioma” (Journal of Medicinal Chemistry, 2020)
# Where “and” joins values, the source holds several entries; their conditions need not be identical. Identical values can stand only once.
# Legend:
# ALK1/ACVRL1 = molecular target: T1, ALK1/ACVRL1 (Homo sapiens, UniProt P37023); experiment: 375-member kinase panel; type: biochemical; details: Run 1, Run 2; for % enzyme activity: 1 μM
# T1 construct: purchased Reaction Biology Corporation
# PIM1 = PIM1 (Homo sapiens, UniProt P11309); details: 1 μM; Run 1, Run 2
# ERK7/MAPK15 = molecular target: T2, ERK7/MAPK15 (Homo sapiens, UniProt Q8TD08); experiment: biochemical; details: read-out: % enzyme activity, 1 μM; Run 1, Run 2
# T2 sequence (Q8TD08 1-544): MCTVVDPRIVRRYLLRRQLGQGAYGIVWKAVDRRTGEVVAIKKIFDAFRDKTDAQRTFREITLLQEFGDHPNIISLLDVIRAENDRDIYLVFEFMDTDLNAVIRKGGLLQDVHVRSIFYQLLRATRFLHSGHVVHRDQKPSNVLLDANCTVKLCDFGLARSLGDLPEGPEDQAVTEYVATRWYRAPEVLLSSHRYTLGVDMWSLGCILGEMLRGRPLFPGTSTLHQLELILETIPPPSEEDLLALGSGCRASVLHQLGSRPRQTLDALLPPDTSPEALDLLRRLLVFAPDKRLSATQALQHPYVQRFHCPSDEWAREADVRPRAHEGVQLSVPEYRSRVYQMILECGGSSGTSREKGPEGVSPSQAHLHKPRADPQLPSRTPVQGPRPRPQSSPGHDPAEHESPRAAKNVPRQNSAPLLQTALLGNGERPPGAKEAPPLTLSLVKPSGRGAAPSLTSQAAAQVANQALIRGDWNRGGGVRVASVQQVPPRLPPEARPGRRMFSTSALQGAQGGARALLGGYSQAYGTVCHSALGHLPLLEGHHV
# ERN1/IRE1 = ERN1/IRE1 (Homo sapiens, UniProt O75460); experiment: biochemical; details: read-out: % enzyme activity, 1 μM; Run 1, Run 2
# MLK3/MAP3K11 = MLK3/MAP3K11 (Homo sapiens, UniProt Q16584); experiment: biochemical; details: read-out: % enzyme activity, 1 μM; Run 1, Run 2
# MST1/STK4 = molecular target: T3, MST1/STK4 (Homo sapiens, UniProt Q13043); experiment: biochemical; details: read-out: % enzyme activity, 1 μM; Run 1, Run 2
# T3 sequence (Q13043 1-487): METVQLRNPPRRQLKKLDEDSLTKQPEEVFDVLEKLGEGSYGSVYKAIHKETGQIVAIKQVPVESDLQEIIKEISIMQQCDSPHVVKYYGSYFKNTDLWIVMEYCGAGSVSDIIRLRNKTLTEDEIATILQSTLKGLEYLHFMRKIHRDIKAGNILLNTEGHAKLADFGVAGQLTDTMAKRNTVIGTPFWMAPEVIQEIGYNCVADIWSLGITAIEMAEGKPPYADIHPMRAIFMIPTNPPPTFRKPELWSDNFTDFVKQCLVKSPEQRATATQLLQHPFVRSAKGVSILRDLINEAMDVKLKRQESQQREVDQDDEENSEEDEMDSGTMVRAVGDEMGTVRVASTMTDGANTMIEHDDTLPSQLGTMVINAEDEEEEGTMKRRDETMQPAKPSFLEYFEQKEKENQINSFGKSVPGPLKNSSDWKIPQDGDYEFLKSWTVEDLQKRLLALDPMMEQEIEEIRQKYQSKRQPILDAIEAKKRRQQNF
# MYO3b = molecular target: T4, MYO3b (Homo sapiens, UniProt Q8WXR4); experiment: biochemical; details: read-out: % enzyme activity, 1 μM; Run 1, Run 2
# T4 sequence (Q8WXR4 1-1341): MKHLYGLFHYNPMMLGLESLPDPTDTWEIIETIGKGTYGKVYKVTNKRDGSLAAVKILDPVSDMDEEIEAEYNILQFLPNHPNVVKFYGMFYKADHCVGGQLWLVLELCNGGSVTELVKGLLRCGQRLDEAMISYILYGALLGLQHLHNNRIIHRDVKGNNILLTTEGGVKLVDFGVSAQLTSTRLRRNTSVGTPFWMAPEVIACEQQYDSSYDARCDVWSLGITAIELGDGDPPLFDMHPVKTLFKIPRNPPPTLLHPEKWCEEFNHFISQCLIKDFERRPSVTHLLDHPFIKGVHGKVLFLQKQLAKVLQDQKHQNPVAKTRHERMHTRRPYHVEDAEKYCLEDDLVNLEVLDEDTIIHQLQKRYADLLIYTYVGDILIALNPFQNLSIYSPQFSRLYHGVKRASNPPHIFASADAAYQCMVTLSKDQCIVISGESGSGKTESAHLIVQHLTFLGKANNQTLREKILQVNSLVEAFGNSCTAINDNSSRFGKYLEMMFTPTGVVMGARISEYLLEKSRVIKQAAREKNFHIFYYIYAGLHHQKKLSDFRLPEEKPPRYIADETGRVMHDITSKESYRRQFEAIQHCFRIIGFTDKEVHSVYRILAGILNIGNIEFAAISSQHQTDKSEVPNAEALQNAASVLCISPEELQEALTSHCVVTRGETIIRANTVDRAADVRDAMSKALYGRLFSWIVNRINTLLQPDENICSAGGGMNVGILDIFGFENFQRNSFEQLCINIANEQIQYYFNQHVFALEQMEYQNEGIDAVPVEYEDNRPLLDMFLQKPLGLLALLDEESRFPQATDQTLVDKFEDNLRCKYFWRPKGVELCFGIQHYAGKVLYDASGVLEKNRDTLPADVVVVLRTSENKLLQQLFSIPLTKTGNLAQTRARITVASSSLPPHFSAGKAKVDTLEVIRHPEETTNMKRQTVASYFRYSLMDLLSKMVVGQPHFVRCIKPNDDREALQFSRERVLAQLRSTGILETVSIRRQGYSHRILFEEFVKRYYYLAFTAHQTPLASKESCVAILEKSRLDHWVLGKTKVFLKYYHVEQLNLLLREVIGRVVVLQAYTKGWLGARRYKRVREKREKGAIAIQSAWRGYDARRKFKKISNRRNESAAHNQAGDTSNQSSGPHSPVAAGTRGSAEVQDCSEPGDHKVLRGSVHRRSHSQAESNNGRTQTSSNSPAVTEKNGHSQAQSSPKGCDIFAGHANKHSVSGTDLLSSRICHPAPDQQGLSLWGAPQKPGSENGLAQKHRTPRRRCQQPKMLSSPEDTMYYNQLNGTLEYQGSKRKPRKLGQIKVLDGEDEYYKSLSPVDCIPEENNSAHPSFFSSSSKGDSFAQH
# T1 sequence (P37023 22-503): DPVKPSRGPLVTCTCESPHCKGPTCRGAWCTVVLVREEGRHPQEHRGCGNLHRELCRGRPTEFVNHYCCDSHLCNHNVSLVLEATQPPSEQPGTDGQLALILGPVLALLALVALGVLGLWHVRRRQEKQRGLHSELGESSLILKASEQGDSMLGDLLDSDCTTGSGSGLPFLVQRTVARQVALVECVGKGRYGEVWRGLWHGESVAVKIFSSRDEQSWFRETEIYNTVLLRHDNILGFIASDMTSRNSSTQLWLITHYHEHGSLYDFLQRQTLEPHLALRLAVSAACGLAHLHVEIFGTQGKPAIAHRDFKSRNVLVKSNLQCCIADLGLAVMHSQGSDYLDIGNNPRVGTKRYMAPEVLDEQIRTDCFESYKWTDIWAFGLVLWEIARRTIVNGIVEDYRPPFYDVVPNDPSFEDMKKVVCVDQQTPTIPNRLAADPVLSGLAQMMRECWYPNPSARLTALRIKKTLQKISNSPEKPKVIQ
# Sequence of ERN1/IRE1 (O75460 19-977): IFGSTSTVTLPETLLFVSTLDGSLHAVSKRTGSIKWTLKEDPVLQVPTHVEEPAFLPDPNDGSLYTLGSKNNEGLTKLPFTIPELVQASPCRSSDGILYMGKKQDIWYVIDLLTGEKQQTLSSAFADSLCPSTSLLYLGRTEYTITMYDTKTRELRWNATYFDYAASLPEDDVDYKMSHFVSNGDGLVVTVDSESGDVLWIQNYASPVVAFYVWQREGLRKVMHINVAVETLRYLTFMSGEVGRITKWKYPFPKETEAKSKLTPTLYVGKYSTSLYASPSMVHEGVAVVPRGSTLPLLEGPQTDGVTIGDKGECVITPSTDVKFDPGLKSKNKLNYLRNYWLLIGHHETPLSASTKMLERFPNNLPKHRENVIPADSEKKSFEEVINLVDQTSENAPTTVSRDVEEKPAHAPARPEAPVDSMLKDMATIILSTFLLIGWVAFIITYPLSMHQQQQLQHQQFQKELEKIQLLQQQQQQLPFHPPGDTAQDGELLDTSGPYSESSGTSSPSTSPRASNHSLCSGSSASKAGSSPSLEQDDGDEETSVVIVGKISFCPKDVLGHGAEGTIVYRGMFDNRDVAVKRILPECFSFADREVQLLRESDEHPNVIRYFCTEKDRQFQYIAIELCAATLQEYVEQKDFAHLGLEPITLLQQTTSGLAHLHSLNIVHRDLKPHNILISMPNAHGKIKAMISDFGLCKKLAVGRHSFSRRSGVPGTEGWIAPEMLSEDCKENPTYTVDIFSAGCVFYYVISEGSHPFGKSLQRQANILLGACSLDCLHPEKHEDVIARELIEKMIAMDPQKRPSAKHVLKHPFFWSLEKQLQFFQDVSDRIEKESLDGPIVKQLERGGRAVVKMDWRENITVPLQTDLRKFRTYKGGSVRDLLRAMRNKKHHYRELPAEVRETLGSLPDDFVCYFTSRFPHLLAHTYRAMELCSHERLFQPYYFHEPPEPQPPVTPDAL
# Sequence of MLK3/MAP3K11 (Q16584 whole entry): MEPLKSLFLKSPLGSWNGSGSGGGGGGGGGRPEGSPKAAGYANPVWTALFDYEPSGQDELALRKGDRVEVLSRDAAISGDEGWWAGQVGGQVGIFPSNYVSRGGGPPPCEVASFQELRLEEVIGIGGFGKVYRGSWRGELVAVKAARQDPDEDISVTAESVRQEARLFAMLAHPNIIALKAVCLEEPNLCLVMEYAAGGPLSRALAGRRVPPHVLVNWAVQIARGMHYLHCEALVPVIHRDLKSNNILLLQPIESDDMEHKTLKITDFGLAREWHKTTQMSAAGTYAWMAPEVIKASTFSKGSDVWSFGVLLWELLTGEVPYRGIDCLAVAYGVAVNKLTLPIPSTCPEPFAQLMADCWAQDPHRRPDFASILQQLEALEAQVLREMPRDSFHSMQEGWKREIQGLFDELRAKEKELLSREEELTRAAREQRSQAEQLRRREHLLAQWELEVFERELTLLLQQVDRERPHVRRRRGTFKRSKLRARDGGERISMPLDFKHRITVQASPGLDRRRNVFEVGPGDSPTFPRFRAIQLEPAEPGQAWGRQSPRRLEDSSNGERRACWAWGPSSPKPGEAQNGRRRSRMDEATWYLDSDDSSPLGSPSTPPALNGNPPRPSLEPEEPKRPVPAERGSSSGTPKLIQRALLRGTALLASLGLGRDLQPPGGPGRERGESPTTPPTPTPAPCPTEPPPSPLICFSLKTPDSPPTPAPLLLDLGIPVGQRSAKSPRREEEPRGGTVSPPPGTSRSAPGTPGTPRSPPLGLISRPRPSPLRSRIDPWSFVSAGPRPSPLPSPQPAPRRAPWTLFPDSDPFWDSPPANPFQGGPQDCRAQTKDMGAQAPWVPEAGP
# Sequence of PIM1 (P11309 whole entry): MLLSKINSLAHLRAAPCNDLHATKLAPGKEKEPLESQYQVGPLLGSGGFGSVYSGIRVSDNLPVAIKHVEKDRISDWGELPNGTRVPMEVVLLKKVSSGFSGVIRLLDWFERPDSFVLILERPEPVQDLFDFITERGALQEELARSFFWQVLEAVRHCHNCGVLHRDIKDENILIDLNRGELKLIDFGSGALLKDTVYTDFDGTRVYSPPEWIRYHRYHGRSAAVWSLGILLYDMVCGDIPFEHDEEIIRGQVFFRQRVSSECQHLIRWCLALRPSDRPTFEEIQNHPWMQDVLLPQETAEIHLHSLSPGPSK
Structure (SMILES),% enzyme activity at 1 μM (ARAF),% enzyme activity (ALK1/ACVRL1),"remaining activity at 1 µM (ALK1/ACVRL1; read-out: % enzyme activity, 1 μM)",% enzyme activity (PIM1),remaining activity at 1 µM (ERK7/MAPK15),remaining activity at 1 µM (ERN1/IRE1),remaining activity at 1 µM (MLK3/MAP3K11),remaining activity at 1 µM (MST1/STK4),remaining activity at 1 µM (MYO3b)
"COc1cc(-c2cncc(-c3ccc(N4C[C@@H](C)N(C)[C@@H](C)C4)cc3)c2C)cc(F)c1C(N)=O [Compound 26c, 2-Fluoro-6-methoxy-4-(4-methyl-5-(4-((3R,5S)-3,4,5-trimethylpiperazin-1-yl)phenyl)pyridin-3-yl)benzamide]",48.1% and 43.3%,4.38%,4.67%,92.25%,98.3%,91%,96.7%,103%,86.5%
"COc1cc(-c2cncc(-c3ccc(N4CCN(C)CC4)cc3)c2C)cc(F)c1C(N)=O [Compound 26a, 2-Fluoro-6-methoxy-4-(4-methyl-5-(4-(4-methylpiperazin-1-yl)phenyl)pyridin-3-yl)benzamide]",29.3% and 28.8%,2.65%,–,97.92%,86.8%,92.8%,99.4%,101%,81.6%
